Assay results published in patent publication US20050250837A1, “Use of C-Raf inhibitors for the treatment of neurodegenerative diseases” (priority 2002, published 2005).

What was measured:
[1] = tested on: cerebellar granule neurons; assay: Methylmercury-induced cell death in cerebellar granule neurons; type: cell-based, rat; conditions: HK + 0.5 uM methylmercury, different concentrations of GW5074, 24 hours
c-fms = c-fms (Homo sapiens, UniProt P07333); conditions: Lackey et al., 2000; cited from earlier work
Akt = Akt phosphorylation (Ser473) in neuronal cultures, Western blot; type: cell-based, rat
Description: The best-studied anti-apoptotic pathway in neurons is the PI-3 kinase—Akt signaling pathway (D'Mello et al., 1997; Dudek et al., 1997; Miller et al, 1997a). IGF-1, a potent survival-promotic factor for granule neurons mediates its effect by activating the PI-3 kinase-Akt pathway (Datta et al., 1997; Dudek et al., 1997; D'Mello et al., 1998). […] Switching cerebellar granule neurons from serum-containing HK medium in which they are cultured and allowed to mature, to serum-free LK or HK medium, causes a rapid downregulation of Akt phosphorylation and activity, which can be prevented by IGF-1 (Kumari et al., 2001). […] The same blot was reprobed with an antibody against phospho-Gskβ. Also loaded on the gel were lysates from untreated cultures (maintained in medium containing serum and high K+) and a culture treated for 1 hour with 25 ng/ml IGF-1. […] GSK3βis a proapoptotic molecule that is activated during apoptosis in many neuronal and normeuronal systems. Under survival promoting conditions GSK3β is kept inactivated by phosphorylation, a modification that can be induced by Akt. […] Another proapoptotic molecule that is phosphorylated and inactivated by Akt is the transcription factor, Forkhead (Linseman et al., 2002). […] Switching of neurons to LK medium leads to a rapid downregulation of Akt activity within 2 hours.
For whole-cell lysates, the culture medium was discarded, the neurons washed twice with ice-cold phosphate-buffered saline (PBS), and lysed in lysis buffer (1% Triton, 20 mM Tris-HCl (pH 7.5), 150 mM NaCl, 1 mM Na2EDTA, 1 mM EGTA, 2.5 mM sodium pyrophosphate, 1 mM beta-glycerophosphate, 1 mM Na3VO4, 1 μg/ml leupeptin and 1× protease inhibitor mixture). Protein concentrations were measured using a Bradford protein assay kit (Bio-Rad), and equivalent amounts of protein were mixed with 6×SDS-PAGE sample buffer. […] After staining with Ponceau S to verify uniformity of protein loads/transfer, the membranes were analyzed for immunoreactivity. […]

[2] = tested on: cerebellar granule neurons; assay: Apoptosis of neurons transfected with dominant-negative B-Raf or LacZ in LK plus GW5074; type: cell-based, rat; conditions: LK + 1 uM GW5074, 24 hours
Description: A dominant-negative […] expression vector, pSRa GST B-Raf S728A (full length human B-Raf with Serine to Alanine mutation at position 728) was gifted to us by Dr. Angus M. MacNicol, University of Arkansas for Medical Sciences, Little Rock, Ark. Neuronal cultures were transfected with CMV-LacZ or the dominant-negative B-Raf construct using the calcium phosphate method 5 days after plating of the cultures. […] The proportion of transfected neurons that were apoptotic was quantified 24 hours later.

cdk1 = cdk1 (Homo sapiens, UniProt P06493); conditions: Lackey et al., 2000; cited from earlier work
NF-κB = NF-κB DNA-binding activity, gel mobility shift assay; type: cell-based, rat; conditions: LK + 1 uM GW5074, 6 hours
Description: Another molecule known to be important for neuronal survival is NF-κB. Although the precise mechanism has not been elucidated, the Raf is known to activate NF-κB in normeuronal cells via a MEK-ERK-independent mechanism (Foo and Nolan, 1999; Pearson et al., 2000). […] Viability was quantified 24 hours later and expressed as percentage of viability in HK.
One potential mediator of MEK-ERK-independent B-Raf signaling is NF-κB.
Nuclei from neuronal cultures were resuspended in buffer containing 20 mM HEPES pH 7.6, 50 mM KCl, 300 mM NaCl, 0.1 mM EDTA, 1 mM DTT, 0.1 mM PMSF, 10% glycerol, 1× protease inhibitor cocktail and extracted on ice for 30 min, followed by micro-centrifugation at 14,000 rpm for 10 min. The supernatants were collected as nuclear extracts. Concentrations of these nuclear extracts were determined by the Bradford method using reagents from Bio-Rad. Ten μg of each nuclear extract sample was incubated with 0.1 pmol of ^32P-labeled double-stranded KB binding oligonucleotide (5′-[…]-3′) identified as SEQ ID NO:1, or SP1 binding oligonucleotide (5′-[…]-3′) identified as SEQ ID NO:2, in buffer containing 1 μg of poly (d1-dC), 1 μg of BSA, 10 mM HEPES pH7.6, 0.5 mM DTT, 0.1 mM EDTA, 60 mM KCl, 0.2 mM PMSF, 5 mM MgCl2, and 12% glycerol at room temperature for 30 min. Samples were analyzed by 5% native polyacrylamide gel electrophoresis (PAGE) followed by autoradiography.

Sequence of c-fms (P07333 20-972): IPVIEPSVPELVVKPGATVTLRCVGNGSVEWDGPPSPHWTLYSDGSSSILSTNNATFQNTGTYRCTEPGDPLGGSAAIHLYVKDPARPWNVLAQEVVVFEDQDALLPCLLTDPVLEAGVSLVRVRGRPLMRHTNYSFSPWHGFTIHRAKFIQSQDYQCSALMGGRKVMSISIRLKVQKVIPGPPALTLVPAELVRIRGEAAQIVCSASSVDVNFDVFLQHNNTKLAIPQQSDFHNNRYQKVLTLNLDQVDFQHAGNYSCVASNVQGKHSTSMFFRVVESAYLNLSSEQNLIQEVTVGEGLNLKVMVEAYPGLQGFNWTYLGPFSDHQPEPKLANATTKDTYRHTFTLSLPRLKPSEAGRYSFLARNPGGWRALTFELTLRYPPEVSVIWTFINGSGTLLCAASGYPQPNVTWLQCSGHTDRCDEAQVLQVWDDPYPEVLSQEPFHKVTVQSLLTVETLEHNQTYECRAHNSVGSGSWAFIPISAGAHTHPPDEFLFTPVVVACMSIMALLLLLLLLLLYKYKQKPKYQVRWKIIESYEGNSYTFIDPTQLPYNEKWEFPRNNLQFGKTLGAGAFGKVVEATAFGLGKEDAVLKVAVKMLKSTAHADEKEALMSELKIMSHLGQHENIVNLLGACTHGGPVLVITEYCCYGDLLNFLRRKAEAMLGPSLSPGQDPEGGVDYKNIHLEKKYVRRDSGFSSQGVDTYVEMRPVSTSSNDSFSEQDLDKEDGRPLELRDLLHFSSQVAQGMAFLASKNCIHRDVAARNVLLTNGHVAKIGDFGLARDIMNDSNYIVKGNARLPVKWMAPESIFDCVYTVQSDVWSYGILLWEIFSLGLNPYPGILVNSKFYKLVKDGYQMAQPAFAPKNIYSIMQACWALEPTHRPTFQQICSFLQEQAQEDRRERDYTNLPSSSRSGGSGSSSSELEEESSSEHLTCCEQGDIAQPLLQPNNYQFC
Sequence of cdk1 (P06493 whole entry, species assumed): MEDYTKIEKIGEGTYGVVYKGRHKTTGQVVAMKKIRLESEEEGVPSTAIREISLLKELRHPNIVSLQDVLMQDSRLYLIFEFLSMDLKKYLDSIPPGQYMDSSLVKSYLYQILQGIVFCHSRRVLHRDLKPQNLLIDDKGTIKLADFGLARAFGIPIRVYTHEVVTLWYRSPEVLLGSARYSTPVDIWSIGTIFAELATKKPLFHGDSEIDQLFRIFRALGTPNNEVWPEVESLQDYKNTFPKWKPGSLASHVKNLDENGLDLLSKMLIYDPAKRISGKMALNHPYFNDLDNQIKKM
Sequence of cdk1 (P14635 whole entry partner, species assumed): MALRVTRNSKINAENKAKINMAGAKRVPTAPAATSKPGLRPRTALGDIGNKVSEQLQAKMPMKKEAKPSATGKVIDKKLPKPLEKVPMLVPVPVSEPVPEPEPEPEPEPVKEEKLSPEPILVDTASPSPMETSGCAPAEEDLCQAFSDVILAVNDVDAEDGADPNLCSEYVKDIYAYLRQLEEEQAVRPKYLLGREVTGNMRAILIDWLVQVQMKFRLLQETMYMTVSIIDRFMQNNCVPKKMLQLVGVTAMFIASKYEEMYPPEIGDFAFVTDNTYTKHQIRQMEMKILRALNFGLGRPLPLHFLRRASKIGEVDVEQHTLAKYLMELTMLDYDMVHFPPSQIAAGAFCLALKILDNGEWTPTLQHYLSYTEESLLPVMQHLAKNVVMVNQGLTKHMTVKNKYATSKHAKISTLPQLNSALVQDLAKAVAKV

Compound: O=C1Nc2ccc(I)cc2C1=Cc1cc(Br)c(O)c(Br)c1 [GW5074, 5-Iodo-3-[(3,5-dibromo-4-hydroxyphenyl)methylene]-2-indolinone]
- methylmercury-induced cell death [1]: reduced methylmercury-induced cell death
- effect on activity of c-fms (c-fms): no effect
- Akt phosphorylation after LK treatment (Akt; LK + 1 uM GW5074, 1 and 3 hours): delays the downregulation of Akt phosphorylation
- de novo Akt activation after downregulation in LK (Akt; added to cultures already switched to LK): does not lead to Akt activation
- death of neurons ([2]; LacZ control): less than 10%
- death of infected neurons ([2]; dominant-negative B-Raf, data not shown): 80%
- effect on activity of cdk1 (cdk1): no effect
- NF-κB binding activity in LK (NF-κB): downregulation of NF-κB binding activity is prevented
